Measured values taken from patent US7294633B2, “Oxazolo-and furopyrimidines and their use in medicaments against tumors” (Novartis AG, priority 2001, dated 2007).

## C[C@@H](Nc1ncnc2oc(-c3cccc(N)c3)cc12)c1ccccc1 [Example 13, 4-(1R-phenylethylamino)-6-(3-aminophenyl)furo[2,3-d]pyrimidine]
  melting point: 64 to 84 °C
